Read-outs that look alike come from different tables or passages of the source. Numbered stars: 1 amine (or outer) side, 2 acyl side, 3 side chain; on linkers, the order of the positions; unused ones are H or OH. Square brackets hold non-standard residues; d marks the D form. Side chains are listed from the residue outwards. Peptide text beside a SMILES is read from it. * marks the point of attachment. C18 diacid = O=C(O)CCCCCCCCCCCCCCCCC(=O)*; γGlu = O=C(O)[C@H](CCC(=O)[*:2])N[*:1]; Palmitoyl = CCCCCCCCCCCCCCCC(=O)*; αMeF = C[C@](N)(Cc1ccccc1)C(=O)O; αMeK = C[C@](N)(CCCCN)C(=O)O; Lauroyl = CCCCCCCCCCCC(=O)*; αMeS = C[C@](N)(CO)C(=O)O; AEEA = NCCOCCOCC(=O)O; Aib = CC(C)(N)C(=O)O
Experiments:
Assay type in all cases: cell-based
[1] = target: T1, GLP-1R (INS1e assay) (Rattus norvegicus, UniProt P32301); assay: INS1e assay, cAMP activity at GLP-1R
T1 construct: endogenous in cells; host or cells: INS-1E cells
T1 sequence (P32301 22-463): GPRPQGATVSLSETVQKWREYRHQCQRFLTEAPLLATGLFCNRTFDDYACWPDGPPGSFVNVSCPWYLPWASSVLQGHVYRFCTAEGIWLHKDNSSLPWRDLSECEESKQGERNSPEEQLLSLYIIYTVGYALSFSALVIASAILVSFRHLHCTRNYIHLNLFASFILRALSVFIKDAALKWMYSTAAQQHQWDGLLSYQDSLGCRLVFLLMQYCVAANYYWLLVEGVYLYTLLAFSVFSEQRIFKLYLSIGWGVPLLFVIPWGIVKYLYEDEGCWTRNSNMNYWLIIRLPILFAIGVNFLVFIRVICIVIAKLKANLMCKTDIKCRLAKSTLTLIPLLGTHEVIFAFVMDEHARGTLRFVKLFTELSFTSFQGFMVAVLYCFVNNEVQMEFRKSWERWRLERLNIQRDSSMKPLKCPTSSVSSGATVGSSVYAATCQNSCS
Procedure, shortened: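 It pairs cAMP-d2 acceptor with anti-cAMP cryptate donor, both prepared 1/20 in conjugate/lysis buffer, applied as a two-step protocol.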

[2] = target: T2, human glucagon receptor (GCGR) (Homo sapiens, UniProt P47871); assay: cAMP assay, human GCGR cells
T2 construct: expressed in transfected cells
Procedure, shortened: (§1)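 Peptide-stimulated cAMP measured by two-step HTRF after a 30 min room-temperature incubation with receptor-expressing cells (hGLP-1R, hGIPR at 1×10^5 cells/ml; hGCGR at 2×10^5 cells/ml). Duplicate dilutions; EC50 from 4-parameter logistic fit of % Delta F.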

[3] = target: T3, human GLP-1 receptor (GLP-1R) (Homo sapiens, UniProt P43220); assay: cAMP assay, human GLP-1R cells
T3 construct: expressed in transfected cells
Procedure, shortened: as §1

[4] = target: T4, human glucose-dependent insulinotropic peptide receptor (GIPR) (Homo sapiens, UniProt P48546); assay: cAMP assay, human GIPR cells
T4 construct: expressed in transfected cells
T4 sequence (P48546 22-466): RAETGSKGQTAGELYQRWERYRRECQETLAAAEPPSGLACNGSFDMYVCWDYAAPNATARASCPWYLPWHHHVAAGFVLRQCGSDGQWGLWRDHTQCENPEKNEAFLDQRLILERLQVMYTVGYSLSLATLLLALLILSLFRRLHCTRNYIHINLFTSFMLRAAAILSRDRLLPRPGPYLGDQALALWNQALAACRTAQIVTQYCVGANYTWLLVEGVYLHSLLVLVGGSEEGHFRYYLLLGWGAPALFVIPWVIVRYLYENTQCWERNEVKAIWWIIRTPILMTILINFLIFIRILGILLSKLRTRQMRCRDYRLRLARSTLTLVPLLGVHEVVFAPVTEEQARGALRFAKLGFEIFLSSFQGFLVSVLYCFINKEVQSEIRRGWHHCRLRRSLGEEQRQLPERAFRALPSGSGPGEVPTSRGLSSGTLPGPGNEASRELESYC
Procedure, shortened: as §1

[5] = mono-lipidated peptides, mean of n1 and n2, read-out: INS1e assay EC50 Mean pM GLP-1R
[6] = mono-lipidated peptides, replicate n1, read-out: INS1e assay EC50 GLP-1R n1
[7] = mono-lipidated peptides, replicate n2, read-out: INS1e assay EC50 GLP-1R n2
[8] = cAMP assay, first determination (n1), read-out: Primary assay EC50 Gluc-R (n1)
[9] = cAMP assay, second determination (n2), read-out: Primary assay EC50 Gluc-R (n2)
[10] = cAMP assay, first determination (n1), read-out: Primary assay EC50 GLP-1R n1
[11] = cAMP assay, second determination (n2), read-out: Primary assay EC50 GLP-1R n2
[12] = mean of n1 and n2, read-out: Mean pM GLP-1R
[13] = cAMP assay, first determination (n1), read-out: Primary assay EC50 GIP-R (n1)
[14] = cAMP assay, second determination (n2), read-out: Primary assay EC50 GIP-R (n2)

T3 sequence (P43220 24-463): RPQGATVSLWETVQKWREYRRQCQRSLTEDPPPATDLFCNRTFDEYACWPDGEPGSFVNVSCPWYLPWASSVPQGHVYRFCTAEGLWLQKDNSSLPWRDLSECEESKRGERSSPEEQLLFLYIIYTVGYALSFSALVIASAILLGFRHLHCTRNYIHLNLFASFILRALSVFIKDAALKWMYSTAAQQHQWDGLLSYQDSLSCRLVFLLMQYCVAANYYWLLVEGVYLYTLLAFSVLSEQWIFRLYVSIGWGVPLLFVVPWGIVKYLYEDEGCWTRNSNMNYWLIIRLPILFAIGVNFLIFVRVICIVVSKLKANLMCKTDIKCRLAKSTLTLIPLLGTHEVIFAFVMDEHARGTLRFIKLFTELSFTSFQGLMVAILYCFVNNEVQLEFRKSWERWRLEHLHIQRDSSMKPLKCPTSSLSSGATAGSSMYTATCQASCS
T2 sequence (P47871 26-477): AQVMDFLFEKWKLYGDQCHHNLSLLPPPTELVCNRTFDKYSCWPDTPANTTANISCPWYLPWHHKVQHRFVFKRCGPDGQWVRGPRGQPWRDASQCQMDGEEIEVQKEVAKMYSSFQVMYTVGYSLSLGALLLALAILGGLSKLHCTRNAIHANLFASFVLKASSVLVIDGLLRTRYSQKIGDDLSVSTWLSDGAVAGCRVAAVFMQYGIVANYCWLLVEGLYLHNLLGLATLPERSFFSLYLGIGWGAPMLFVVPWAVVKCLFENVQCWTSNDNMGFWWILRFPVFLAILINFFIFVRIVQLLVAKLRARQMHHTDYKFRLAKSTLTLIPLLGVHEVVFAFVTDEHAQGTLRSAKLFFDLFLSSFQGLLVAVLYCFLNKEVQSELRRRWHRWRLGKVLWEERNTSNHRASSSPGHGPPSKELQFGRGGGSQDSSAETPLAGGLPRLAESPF

EC50 [1, 5] | EC50 [1, 6] | EC50 [1, 7] | EC50 [2, 8] | EC50 [2, 9] | EC50 [3, 10] | EC50 [3, 11] | EC50 [3, 12] | EC50 [4, 13] | EC50 [4, 14] | EC50 ([1]; tris-lipidated peptides, mean of n1 and n2, read-out: INS1e assay EC50 Mean pM GLP-1R) | EC50 ([1]; tris-lipidated peptides, replicate n1, read-out: INS1e assay EC50 GLP-1R n1) | EC50 ([1]; tris-lipidated peptides, replicate n2, read-out: INS1e assay EC50 GLP-1R n2) | EC50 ([2]; tris-lipidated peptides, second replicate, read-out: Primary assay EC50 Gluc-R (n2)) | EC50 ([3]; tris-lipidated peptides, mean of n1 and n2, read-out: Primary assay EC50 Mean pM GLP-1R) | EC50 ([3]; tris-lipidated peptides, replicate n1, read-out: Primary assay EC50 GLP-1R n1) | EC50 ([3]; tris-lipidated peptides, replicate n2, read-out: Primary assay EC50 GLP-1R n2) | EC50 ([4]; tris-lipidated peptides, second replicate, read-out: Primary assay EC50 GIP-R (n2)) | SMILES
12100 pM | 6150 pM | 18100 pM | ≥ 25.4 nM | ≥ 25.4 nM | 72.1 pM | 48 pM | 60.1 pM | ≥ 25.4 nM | ≥ 25.4 nM |  |  |  |  |  |  |  |  | CC[C@H](C)[C@H](NC(=O)[C@H](Cc1ccccc1)NC(=O)[C@H](CCC(=O)O)NC(=O)C(C)(C)NC(=O)[C@H](C)NC(=O)[C@H](C)NC(=O)[C@H](CCC(=O)O)NC(=O)CNC(=O)[C@H](CCC(=O)O)NC(=O)[C@H](CC(C)C)NC(=O)[C@](C)(Cc1ccccc1)NC(=O)[C@H](CO)NC(=O)[C@](C)(CO)NC(=O)[C@@H](NC(=O)[C@H](CC(=O)O)NC(=O)[C@H](CO)NC(=O)[C@@H](NC(=O)[C@](C)(Cc1ccccc1)NC(=O)[C@H](CO)NC(=O)CNC(=O)[C@H](CCC(=O)O)NC(=O)C(C)(C)NC(=O)[C@@H](N)Cc1c[nH]cn1)[C@@H](C)O)C(C)C)C(=O)N[C@@H](CCCCNC(=O)COCCOCCNC(=O)COCCOCCNC(=O)CC[C@H](NC(=O)CCCCCCCCCCCCCCCCC(=O)O)C(=O)O)C(=O)N[C@@H](Cc1c[nH]c2ccccc12)C(=O)N[C@H](C(=O)N[C@H](C(=O)N[C@@H](CCC(=O)O)C(=O)NCC(=O)NCC(N)=O)C(C)C)C(C)C [compound 67] (H-H[Aib]EGS[αMeF]TSDV[αMeS]S[αMeF]LEGEAA[Aib]EFIK([AEEA-AEEA-γGlu-C18 diacid])WVVEGG-NH2; N-terminus assumed)
 |  |  |  |  |  |  |  |  |  | 6810 pM | 6380 pM | 7240 pM | 19.9 nM | 49 pM | 28 pM | 70 pM | 19.9 nM | CCCCCCCCCCCC(=O)N[C@@H](CCC(=O)NCCOCCOCC(=O)NCCOCCOCC(=O)NCCCC[C@H](NC(=O)[C@H](CO)NC(=O)[C@](C)(CO)NC(=O)[C@@H](NC(=O)[C@H](CC(=O)O)NC(=O)[C@H](CO)NC(=O)[C@@H](NC(=O)[C@](C)(Cc1ccccc1)NC(=O)[C@H](CO)NC(=O)CNC(=O)[C@H](CCC(=O)O)NC(=O)C(C)(C)NC(=O)[C@@H](N)Cc1c[nH]cn1)[C@@H](C)O)C(C)C)C(=O)N[C@@H](CC(C)C)C(=O)N[C@@H](CCC(=O)O)C(=O)NCC(=O)N[C@@H](CCC(=O)O)C(=O)N[C@@H](C)C(=O)N[C@@H](C)C(=O)N[C@@](C)(CCCCN)C(=O)N[C@@H](CCCCNC(=O)COCCOCCNC(=O)COCCOCCNC(=O)CC[C@H](NC(=O)CCCCCCCCCCC)C(=O)O)C(=O)N[C@@H](Cc1ccccc1)C(=O)N[C@H](C(=O)N[C@@H](CCCCNC(=O)COCCOCCNC(=O)COCCOCCNC(=O)CC[C@H](NC(=O)CCCCCCCCCCC)C(=O)O)C(=O)N[C@@H](Cc1ccccc1)C(=O)N[C@H](C(=O)N[C@H](C(=O)N[C@@H](CCC(=O)O)C(=O)NCC(=O)NCC(N)=O)C(C)C)C(C)C)[C@@H](C)CC)C(=O)O [compound 450] (H-H[Aib]EGS[αMeF]TSDV[αMeS]SK([AEEA-AEEA-γGlu-Lauroyl])LEGEAA[αMeK]K([AEEA-AEEA-γGlu-Lauroyl])FIK([AEEA-AEEA-γGlu-Lauroyl])FVVEGG-NH2; N-terminus assumed)
723 pM | 604 pM | 841 pM | ≥ 27 nM | ≥ 27 nM | 6.2 pM | 8 pM | 7.1 pM | ≥ 27 nM | ≥ 27 nM |  |  |  |  |  |  |  |  | CCCCCCCCCCCCCCCC(=O)N[C@@H](CCC(=O)NCCCC[C@H](NC(=O)[C@](C)(CCCCN)NC(=O)[C@@H](NC(=O)[C@@H](NC(=O)[C@](C)(Cc1ccccc1)NC(=O)[C@H](C)NC(=O)[C@@H](NC(=O)[C@](C)(Cc1ccccc1)NC(=O)[C@H](CCC(=O)O)NC(=O)[C@](C)(CCCCN)NC(=O)[C@H](C)NC(=O)[C@H](C)NC(=O)[C@H](CCC(=O)O)NC(=O)CNC(=O)[C@H](CCC(=O)O)NC(=O)[C@H](CC(C)C)NC(=O)[C@](C)(Cc1ccccc1)NC(=O)[C@H](CO)NC(=O)[C@](C)(CO)NC(=O)[C@@H](NC(=O)[C@H](CC(=O)O)NC(=O)[C@H](CO)NC(=O)[C@@H](NC(=O)[C@](C)(Cc1ccccc1)NC(=O)[C@H](CO)NC(=O)CNC(=O)[C@H](CCC(=O)O)NC(=O)C(C)(C)NC(=O)[C@@H](N)Cc1c[nH]cn1)[C@@H](C)O)C(C)C)[C@@H](C)CC)C(C)C)C(C)C)C(=O)NCC(N)=O)C(=O)O [compound 71] (H-H[Aib]EGS[αMeF]TSDV[αMeS]S[αMeF]LEGEAA[αMeK]E[αMeF]IA[αMeF]VV[αMeK]K([γGlu-Palmitoyl])G-NH2)

Source: patent publication US10414811B2, “Protease-resistant lipidated GLP-1 analogs” (MEDIMMUNE LIMITED, priority 2015, dated 2019)
